Test results as given in US9839632B2, “Methods and compositions using 4-amino-2-(2,6-dioxo-piperidine-3-yl)-isoindoline-1,3-dione for treatment and management of central nervous system cancers” (CELGENE CORPORATION, priority 2013, dated 2017).

Assays:
[1] = tested on: primary murine microglia cells; test: Polarization of IL4-treated primary murine microglia cells (immunofluorescence); type: cell-based; details: IL-4 20 ng/ml 48 hours then 10 ug/ml 48 hours
Experimental: Treatments: In experiments in which IL-4 was used to induce M2 polarization of macrophages, cells were treated with IL-4 (20 ng/ml) for 48 hours followed by treatment with 4-amino-2-(2,6-dioxo-piperidine-3-yl)-isoindoline-1,3-dione (10 ug/ml) or DMSO control for 48 hours. In triple cell culture experiments with lymphoma cells, macrophages, and NK cells, the treatment was with either DMSO or 4-amino-2-(2,6-dioxo-piperidine-3-yl)-isoindoline-1,3-dione (10 ug/ml) for 48 hours.
Immunofluorescence for analysis of macrophage polarization in cell culture experiments: Live cells were fixed in 10% formalin for 30 minutes at room temperature followed by permeabilization with PBS-0.2% Triton X-100 for 2 min. After blocking with PBS-5% goat serum-0.02% Triton X-100 for 30 minutes at 37° C., the cells were incubated overnight at 4° C. with rat monoclonal F4/80 antibody (for primary microglia cells, 1:200 Abcam), rat monoclonal CD11b (for U937, 1:200 Biolegend), rabbit polyclonal Ym1 antibody (for primary microglia cells and primary peritoneal macrophages, 1:200, Stemcell Technologies, Vancouver, Canada), rabbit polyclonal FXIII A antibody (for U937, 1:200, Abcam), mouse monoclonal p-STAT1 antibody (1:200, Abcam), rabbit polyclonal p-STAT6 antibody (1:200, Abcam) or rabbit iNOS antibody (1:200, Calbiochem). […]

Raji B lymphoma cells = test: Orthotopic murine CNS lymphoma model, Raji (bioluminescence tumor growth, survival); type: in vivo, athymic mice; details: for median survival: Raji model; for in vivo tumor growth (luminescence signal) vs control: P<0.05, n=8
Experimental: Animal and housing: Female athymic mice (8-10 weeks old and weighing 20-25 g at the beginning of the study) were purchased from Harlan laboratories. They were housed in a temperature-controlled sterilized room (23±2° C.) with a 12-h light/dark cycle and free access to food and water throughout the study. Animal use was approved by Mayo Foundation Institutional Animal Use and Care Committee and was in accordance with NIH Guide for the Care and Use of Laboratory Animals.
Orthotopic murine CNS lymphoma models: Two murine CNS lymphoma models were created by intracerebral injection of 2.5×10^4 luciferase-transfected Raji or 1×10^5 luciferase-transfected OCI-LY10 B lymphoma cells in athymic mice under anesthesia using a stereotactic platform. Eight-week-old athymic mice underwent minimum 7-day acclimation/quarantine prior to surgery. Surgery was performed in a laminar flow hood under sterile conditions. Tylenol 300 mg/kg PO was given for analgesia 24 hours before the surgery continuing 48 hours postoperatively. Anesthesia was achieved by inhalation of 1-2% isoflurane. After the mouse became well anesthetized, it was placed in the Kopf stereotactic instrument. A small amount of BNP antibiotic cream (a mixture of Bacitracin, Neomycin and Polymyxin) was smeared on its eyes to prevent infection and corneal damage during surgery. A strip of soft fabric was placed over the mouse's body and tail to prevent excessive heat loss during surgery. The scalp area was cleaned with a 2% solution of Betadine and dried with cotton tipped applicator. A midline sagittal incision was made in the scalp. A small burr hole was drilled in the left skull with a surgical drill (Kopf) or a Dremel drill according to the coordinates (AP: 0.5 mm, LM: 2.5 mm) as determined by reference to the mouse brain atlas by Franklin and Paxinos. Paxinos, 2001. The dura mater was surgically exposed, and a 10 μl-Hamilton syringe with a 26S-gauge beveled needle was lowered into the left cerebral hemisphere up to the depth of 3 mm and 5 μl of tumor cells was slowly infused (0.5 μl/min). The needle was left in place for 5 minutes to prevent reflux and then was slowly removed. The skin was closed with wound clips. The mice recovered from anesthesia and surgery in a warm environment and were not returned to their cages until motor activity returned. Cages were placed on top of a heating pad to minimize the loss of body heat during the recovery. The mice were monitored postoperatively at least twice a day for 5 days or until recovery was complete.
Bioluminescence imaging of mouse: After intracerebral injection of lymphoma cells, all the mice were subjected to bioluminesence imaging (“BLI”) twice a week starting at day-4 post-intracerebral injection to monitor the real-time in vivo tumor growth. BLI was conducted using a Xenogen Lumina optical imaging system (Caliper Life Sciences, Hopkinton, Mass.). Mice were anesthetized with isofluorane before intraperitoneal injections of luciferin at a dose of 150 mg/kg, providing a saturating substrate concentration for luciferase enzyme. Peak luminescent signals were recorded 10 minutes after luciferin injection. Regions of interest encompassing the intracranial area of signal were defined using Living Image software (Xenogen), and the total photons/s/steradian/cm^2 was recorded.
In vivo preclinical evaluation of 4-amino-2-(2,6-dioxo-piperidine-3-yl)-isoindoline-1,3-dione in murine CNS lymphoma models: Mice were imaged 4 days after intracerebral injection and were distributed among different treatment groups with equivalent average BLI signal. Real time tumor growth was monitored by BLI. Tumor growth and survival data were analyzed for statistical difference between the groups. Mice were assigned to four experimental groups and one vehicle control group in Raji model. Mice in experimental groups received 4-amino-2-(2,6-dioxo-piperidine-3-yl)-isoindoline-1,3-dione 0.3 mg/kg, 3 mg/kg, 10 mg/kg, or 30 mg/kg by oral gavage daily for 28 days.

[2] = tested on: human monocyte U937 cells; test: Phagocytosis assay, human monocyte U937 cells; type: cell-based; details: 3 or 10 ug/ml, 48 hours, P<0.05 vs control
Experimental: Phagocytosis assay: The impact of 4-amino-2-(2,6-dioxo-piperidine-3-yl)-isoindoline-1,3-dione on the phagocytic activity of macrophages was assessed in primary microglial cells and human monocyte cells (U937). The cells were cultured in complete medium for 4 days. They were then harvested and resuspended in Opti-MEM medium at 10^6 cells/ml and seeded in a 96 well plate at 100,000 viable cells/well. The experimental wells were treated with 4-amino-2-(2,6-dioxo-piperidine-3-yl)-isoindoline-1,3-dione 3 or 10 ug/ml. After 48 hours of treatment, the culture medium was quickly replaced with 100 ul of pHrodo BioParticles suspension (Life technologies and the cells were incubated in the suspension at 37° C. for 2-3 hours. Following incubation, the plates were scanned at 550 nm/600 nm (excitation/emission) using fluorescence plate reader. The fluorescence activity reflects the phagocytic activity of the macrophages. The impact of 4-amino-2-(2,6-dioxo-piperidine-3-yl)-isoindoline-1,3-dione treatment (% effect) was calculated as a fraction of the phagocytic activity in the positive control wells. Wan, C. P.; et al., J. Immunol. Methods, 1993, 162, pp. 1-7.

Nc1cccc2c1C(=O)N(C1CCC(=O)NC1=O)C2=O (stereo not shown) [Pomalidomide, 4-amino-2-(2,6-dioxo-piperidine-3-yl)-isoindoline-1,3-dione]
polarization status (FXIII A, pSTAT6 vs iNOS, pSTAT1 expression) [1]: from M2 to M1
body weight vs control group (Raji B lymphoma cells; 3, 10 and 30 mg/kg treatment groups, murine CNS lymphoma model not specified): able to maintain their body weight better than those in control group
median survival (Raji B lymphoma cells; 0.3 mg/kg oral gavage daily for 28 days): 24 days
median survival (Raji B lymphoma cells; 3 mg/kg oral gavage daily for 28 days): 28 days
median survival (Raji B lymphoma cells; 10 mg/kg oral gavage daily for 28 days): 27 days
median survival (Raji B lymphoma cells; 30 mg/kg oral gavage daily for 28 days): 31 days
in vivo tumor growth (luminescence signal) vs control (Raji B lymphoma cells; Raji model, 3, 10 and 30 mg/kg groups): significantly slower
in vivo tumor growth (luminescence signal) vs control (Raji B lymphoma cells; Raji model, 3, 10 and 30 mg/kg groups, listed as 4-amino-2-(2,6-dioxo-piperidine-3-yl)-isoindoline-1,3-dione): reduction of tumor growth
survival, Kaplan-Meier analysis vs control (Raji B lymphoma cells; Raji model, 3, 10 and 30 mg/kg groups, p<0.05, n=8): prolongation of survival
phagocytic activity [2]: significantly increased
